Test results taken from US6949679B1, “Polyamine transport inhibitors” (Universite Laval, priority 1998, dated 2005).

What was measured:
ZR-75-1 cells = assay: Intracellular accumulation of inhibitor and polyamine contents (HPLC) in ZR-75-1 cells; type: cell-based, human
polyamine transporter [1] = assay: Inhibition of [14C]spermine uptake in ZR-75-1 cells; type: cell-based, human
Procedure: The rate of putrescine and spermidine transport was determined in ZR-75-1 cells incubated in serum-free RPMI 1640 medium as described (Lessard, M., Zhao, C., Singh, S. M. and Poulin, R. 1995. J. Biol. Chem. 270: 1685-1694), using [^3H]putrescine (30 Ci/mol) and [^3H]spermidine (20 Ci/mol), respectively as substrates for a 20 minute-assay period. […] Uptake activity was expressed per amount of DNA as fluorometrically determined using 3,4-diaminobenzoic acid (Simard, J., Dauvois, S., Haagensen, D. E., Lėvesque, C., Mėrand, Y. and Labrie, F. 1990. Endocrinology, 126: 3223-3231). For the determination of spermidine uptake activity in CHO-K1 cells, 80% confluent cell monolayers were rinsed twice with PBS and incubated for 20 minutes at 37° C. in 400 μl of buffer A (20 mM Tris-HCl, pH 7.4; 0.42 mM CaCl2; 0.41 mM MgSO4; 103 mM NaCl; 5.7 mM KCl; 1.1 mM D-glucose) containing 5 μM [^3H]spermidine (20 Ci/mol). Cell cultures were then washed twice with 1 ml PBS containing 5.7 mM sym-norspermidine. Cells were then lysed with 200-μl aliquot of 1 N NaOH and incubated for 30 minutes at 60° C. After neutralization with 200 μl of 1 N HCl, radioactivity was determined from a 250-μl of the cell lysate by scintillation counting. Uptake activity was expressed per amount of total cellular protein as determined by the method of Bradford (Bradford, M. M. 1976. Anal. Biochem. 72: 248-254). Non-specific binding of radioactive substrate was similarly determined in parallel for both cell lines after a 15 second-incubation with 400 μl of ice-cold uptake solution.
Kinetic analysis of polyamine transport was performed by determining uptake activity in the presence of a 3 μM [^3H]putrescine or 1 μM [^3H]spermidine plus increasing concentrations of nonradioactive substrate. K[…] Ki and Vmax values were then estimated by Lineweaver-Burke analysis. For competitive inhibitors, Ki values were also estimated by measuring uptake activity in the presence of logarithmically increasing concentrations of antagonist, and using the Cheng-Prusoff equation (Cheng, Y.-C. and Prusoff, W. H. 1973. Biochem. Pharmacol. 22: 3099-3108) by iterative curve fitting for a sigmoidal curve. For mixed competitive/noncompetitive inhibition, two methods were used to calculate kinetic constants. First, the equation [drawing 2] where v, s, and i are the transport velocity, substrate concentration and inhibitor concentration respectively, was used to calculate the inhibition constants for inhibitor/carrier complex formation (Ki) and carrier/inhibitor/substrate complex formation (Ki′) (Dixon, M. and Webb, E. C. 1976. Enzymes, 3rd Ed., Academic Press, San Diego, Calif.). Alternatively, the value of Ki for a mixed competitor/non-competitor was estimated from the intersect of equations v^−1 vs i at two different substrate concentrations (Dixon, M. and Webb, E. C. 1976. Enzymes, 3rd Ed., Academic Press, San Diego, Calif.). Intracellular Accumulation
In order to evaluate the effectiveness of dimeric triamines as polyamine transport inhibitors, we synthesized N,N′-bis(3-aminopropyl),N,N′-bis(4-aminobutyl)cystamine or BABAC (structure 1, FIG. 25; FIG. 31), and its thiol form N-(3-aminopropyl),N-(4-aminobutyl)cysteamine or AAC (FIG. 31) according to Scheme 4 described above (FIG. 30), using spermidine as a precursor polyamine. The ability of BABAC and AAC to inhibit the intracellular uptake of radio-labeled putrescine and spermidine in the ZR-75-1 human breast cancer cell line was then determined according to standard published procedures (Lessard, et al. and Poulin, et al.) Briefly, ZR-75-1 cells were grown for four days in twenty-four well plates in RPMI 1640 medium supplemented with 10% fetal bovine serum.

polyamine transporter [2] = assay: Inhibition of [3H]spermidine uptake in CHO-K1 cells; type: cell-based, Chinese hamster; conditions: [3H]spermidine as substrate
Procedure: To 1 ml of an extemporaneously prepared, DTT-free solution of MESC (20 mM in […]) were added 50 μl of 50 mM Tris-HCl (pH 7.0) and 105 μl of a 40 mM solution of either iodoacetamide, LY iodoacetamide or ASIB in a light-protected microcentrifuge tube, and the mixture was incubated for 2 hours at 37° C. […] Excess iodoacetamide was then inactivated by adding DTT to a final concentration of 40 mM and incubating the solution for 2 hours at 37° C. […] The effect of the respective DTT-inactivated iodoacetamide on spermidine transport was determined in parallel by incubating cells with the same reaction mixture from which MESC was omitted. […] J. Biol. […] Cells were then lysed with 200-μl aliquot of 1 N NaOH and incubated for 30 minutes at 60° C. After neutralization with 200 μl of 1 N HCl, radioactivity was determined from a 250-μl of the cell lysate by scintillation counting. Uptake activity was expressed per amount of total cellular protein as determined by the method of Bradford (Bradford, M. M. 1976. Anal. Biochem. 72: 248-254). […] K[…] Ki and Vmax values were then estimated by Lineweaver-Burke analysis. For competitive inhibitors, Ki values were also estimated by measuring uptake activity in the presence of logarithmically increasing concentrations of antagonist, and using the Cheng-Prusoff equation (Cheng, Y.-C. and Prusoff, W. H. 1973. Biochem. Pharmacol. 22: 3099-3108) by iterative curve fitting for a sigmoidal curve. For mixed competitive/noncompetitive inhibition, two methods were used to calculate kinetic constants. […] C. 1976. Enzymes, 3rd Ed., Academic Press, San Diego, Calif.). […] C. 1976. Enzymes, 3rd Ed., Academic Press, San Diego, Calif.). Intracellular Accumulation

[3] = 200 μM compound + 200 μM CHX, 1 h
[4] = 200 μM compound + 200 μM CHX, 6 h
[5] = this work, read-out: Km or Ki, spermine transport

Row | SMILES | Spermine intracellular content (ZR-75-1 cells; 50 μM compound, 1 h) [nmol/mg protein] | DESC accumulation as % of accumulation measured for spermine under identical conditions (ZR-75-1 cells; 200 μM DESC, 6-hour incubation) | DESC intracellular content (ZR-75-1 cells; [3]) [nmol/mg protein] | Spermidine intracellular content (ZR-75-1 cells; [3]) [nmol/mg protein] | Spermine intracellular content (ZR-75-1 cells; [3]) [nmol/mg protein] | DESC intracellular content (ZR-75-1 cells; [4]) [nmol/mg protein] | Spermine intracellular content (ZR-75-1 cells; [4]) [nmol/mg protein] | Spermine intracellular content (ZR-75-1 cells; 200 μM compound, 1 h) [nmol/mg protein] | Spermine intracellular content (ZR-75-1 cells; 200 μM compound, 6 h) [nmol/mg protein] | Ki (polyamine transporter [1]; FIG. 32, read-out: Apparent Ki, spermine uptake) [µM] | Ki (polyamine transporter [1]; [5]) [µM] | Ki (polyamine transporter [2]) [µM] | Spermine intracellular content (ZR-75-1 cells; 50 μM compound, 6 h) [nmol/mg protein] | Ki for [14C]spermine transport, fold higher than that of DESC (polyamine transporter [1]; FIG. 2) [fold]
1 | NCCCNCCCC(NCCCN)C(=O)NCCSSCCNC(=O)C(CCCNCCCN)NCCCN (stereo not shown) [DESC, 2,2′-dithiobis(N-ethyl-spermine-5-carboxamide)] | 8.27 ± 0.81 | about 1.5% | <0.01 | 0.75 ± 0.04 | 9.57 ± 0.31 | 0.10 | 9.55 ± 0.13 | 8.77 ± 0.79 | 8.66 ± 0.26 | 7.5 | 5 ± 0.7 | 0.92 ± 0.15 | – | –
2 | NCCCNCCCC(NCCCN)C(=O)NCCS (stereo not shown) [MESC, N-(2-mercaptoethyl)spermine-5-carboxamide] | 7.77 ± 0.06 | – | – | – | – | – | – | 8.93 ± 0.53 | 8.32 ± 0.43 | – | 80 ± 31 | 33.6 ± 7.2 | 8.13 ± 0.17 | ~16
